Measured values as given in patent publication US12325022B2, “Microfluidic device, system, and method for the study of organisms” (ECOLE POLYTECHNIQUE FEDERALE DE LAUSANNE (EPFL), priority 2014, dated 2025).
“Also recorded” adds a separate entry of the source.

Assays:
[1] = system: N2 wild-type C. elegans worms and their embryos; test: on-chip 5-FU treatment of worms with monitoring of embryo development in the incubator array; type: in vivo; details: worms treated on-chip from L4 stage with 2 mM in M9 buffer at 25° C.; embryos monitored for 12 h (array pictures at 600 minutes)
Method: Bar graphs are expressed as mean+SEM, *** p≤0.001.
Wild-type worms were isolated in the culture chamber at the L4 larval stage and treated on-chip with 5-FU at a concentration of 2 mM, while being cultured at 25° C. towards the adult stage. Subsequently, embryos were transferred to the incubator array and monitored for 12 h.

wild-type C. elegans [2] = test: whole plant or invertebrate; details: Caenorhabditis elegans, read-out: EC50 of dose-response curve (mean percentage of paralyzed worms)
Method: (§1) The aim of the experiment was to correlate the concentration of the drug with the number of paralyzed worms over time, and to trace a dose-response curve for this drug.
(§2) L1 specimens of wild-type C. elegans have been injected in the chip with the above-described protocol and fed them for 2-3 days to get adult worms. […] The wells were plugged in the inlet and sucked with a syringe from the outlet at total outflows between 100-200 nL/s for 40-80 minutes. The procedure was recorded in real-time for all the chambers at the same time by using a stereo-microscope. It was used a suitable ring-shape back-illumination to enhance the contrast and make the adult worms much lighter than the background.
(§3) Image analysis was done afterwards directly on the video recorded: the number of paralyzed worms per chamber were counted every 10 minutes from the beginning of the drug injection, and the total percentage of paralyzed worms per channel (1 channel=1 concentration) was calculated.

wild-type C. elegans [3] = details: sigmoid fit; paralyzed worms between 30 and 40 minutes after tetramisole injection
Method: as §1, §2, §3

| SMILES | development of embryos laid by treated worms [1] | EC50 (wild-type C. elegans [2]) | Hill slope of dose-response curve (paralyzed worms) (wild-type C. elegans [3]) |
| --- | --- | --- | --- |
| O=c1[nH]cc(F)c(=O)[nH]1 [5-FU, 5-fluorouracil] | All embryos prematurely died; also recorded: blocked development | – | – |
| c1ccc(C2CN3CCSC3=N2)cc1 (stereo not drawn) [tetramisole] | – | ~57 µM | about 0.02 μM |
